# Assay results taken from patent publication US6608086B2, “Dihydropyridines and new uses thereof” (Synaptic Pharmaceutical Corporation, priority 1993, dated 2003).
# Counter-ions that a name gives are not always drawn. Like-named read-outs stand apart in the source and are kept apart here.
# Tests used:
# [1] = target: T1, α1C Human Adrenergic Receptor (Homo sapiens, UniProt P35348); test: Radioligand binding, [3H]prazosin, cloned human α1C adrenergic receptor
# T1 construct: The entire coding region of α1C (1401 bp); expressed in transfected cells
# T1 sequence (P35348 1-466): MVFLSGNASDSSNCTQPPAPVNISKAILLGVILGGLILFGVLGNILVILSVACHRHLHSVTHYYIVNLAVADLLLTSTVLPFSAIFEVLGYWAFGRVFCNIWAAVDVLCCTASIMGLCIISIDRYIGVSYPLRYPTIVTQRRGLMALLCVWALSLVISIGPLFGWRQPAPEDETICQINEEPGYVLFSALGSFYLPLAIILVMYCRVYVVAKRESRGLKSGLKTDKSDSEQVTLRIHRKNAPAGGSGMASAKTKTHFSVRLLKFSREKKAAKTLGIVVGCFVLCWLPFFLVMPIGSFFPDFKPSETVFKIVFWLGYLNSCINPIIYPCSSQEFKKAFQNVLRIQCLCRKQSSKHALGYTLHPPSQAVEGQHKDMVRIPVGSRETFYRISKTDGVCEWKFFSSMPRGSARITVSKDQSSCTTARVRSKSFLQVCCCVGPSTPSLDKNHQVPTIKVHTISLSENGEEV
# Method in brief: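 Read-out is filter-retained [3H]prazosin (0.5 nM) bound to membranes of LM(tk−) cells stably carrying the human α1C receptor. Incubation ran 20 min at 37° C. at pH 7.5, with 10 μM phentolamine marking nonspecific binding.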
# α2C receptor = target: T2, α2C receptor (Homo sapiens, UniProt P18825); test: Competition binding, [3H]rauwolscine, human α2C receptor
# T2 construct: host or cells: LM(tk-) cells, line L-α2C
# T2 sequence (P18825 1-462): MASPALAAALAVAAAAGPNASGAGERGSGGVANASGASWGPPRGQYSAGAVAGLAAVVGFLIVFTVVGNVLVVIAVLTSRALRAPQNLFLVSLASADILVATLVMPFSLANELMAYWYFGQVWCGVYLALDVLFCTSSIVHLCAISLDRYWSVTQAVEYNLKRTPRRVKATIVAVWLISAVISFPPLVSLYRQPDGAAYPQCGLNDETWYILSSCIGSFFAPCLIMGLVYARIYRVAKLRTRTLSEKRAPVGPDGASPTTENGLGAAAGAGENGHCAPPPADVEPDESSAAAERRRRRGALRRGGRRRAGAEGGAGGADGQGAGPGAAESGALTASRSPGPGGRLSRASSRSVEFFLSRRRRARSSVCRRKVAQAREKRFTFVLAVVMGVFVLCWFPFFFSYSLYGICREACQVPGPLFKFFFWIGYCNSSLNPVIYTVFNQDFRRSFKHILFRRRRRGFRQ
# Method in brief: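 Equilibrium displacement of [3H]rauwolscine (0.5 nM) measured on membranes from stably transfected LM(tk−) lines, one per α2 subtype, in glycylglycine buffer at pH 7.6. Nonspecific binding set by 10 μM phentolamine; separation by filtration.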
# L-type calcium channel = target: T3, L-type calcium channel (Rattus norvegicus, UniProt P22002); test: Competition binding of [3H]nitrendipine to membrane fragments of rat cardiac muscle
# T3 construct: membrane fragments of rat cardiac muscle; from tissue; host or cells: rat cardiac muscle membranes
# T3 sequence (P22002 whole entry, other chains not shown, the tested form may be a part): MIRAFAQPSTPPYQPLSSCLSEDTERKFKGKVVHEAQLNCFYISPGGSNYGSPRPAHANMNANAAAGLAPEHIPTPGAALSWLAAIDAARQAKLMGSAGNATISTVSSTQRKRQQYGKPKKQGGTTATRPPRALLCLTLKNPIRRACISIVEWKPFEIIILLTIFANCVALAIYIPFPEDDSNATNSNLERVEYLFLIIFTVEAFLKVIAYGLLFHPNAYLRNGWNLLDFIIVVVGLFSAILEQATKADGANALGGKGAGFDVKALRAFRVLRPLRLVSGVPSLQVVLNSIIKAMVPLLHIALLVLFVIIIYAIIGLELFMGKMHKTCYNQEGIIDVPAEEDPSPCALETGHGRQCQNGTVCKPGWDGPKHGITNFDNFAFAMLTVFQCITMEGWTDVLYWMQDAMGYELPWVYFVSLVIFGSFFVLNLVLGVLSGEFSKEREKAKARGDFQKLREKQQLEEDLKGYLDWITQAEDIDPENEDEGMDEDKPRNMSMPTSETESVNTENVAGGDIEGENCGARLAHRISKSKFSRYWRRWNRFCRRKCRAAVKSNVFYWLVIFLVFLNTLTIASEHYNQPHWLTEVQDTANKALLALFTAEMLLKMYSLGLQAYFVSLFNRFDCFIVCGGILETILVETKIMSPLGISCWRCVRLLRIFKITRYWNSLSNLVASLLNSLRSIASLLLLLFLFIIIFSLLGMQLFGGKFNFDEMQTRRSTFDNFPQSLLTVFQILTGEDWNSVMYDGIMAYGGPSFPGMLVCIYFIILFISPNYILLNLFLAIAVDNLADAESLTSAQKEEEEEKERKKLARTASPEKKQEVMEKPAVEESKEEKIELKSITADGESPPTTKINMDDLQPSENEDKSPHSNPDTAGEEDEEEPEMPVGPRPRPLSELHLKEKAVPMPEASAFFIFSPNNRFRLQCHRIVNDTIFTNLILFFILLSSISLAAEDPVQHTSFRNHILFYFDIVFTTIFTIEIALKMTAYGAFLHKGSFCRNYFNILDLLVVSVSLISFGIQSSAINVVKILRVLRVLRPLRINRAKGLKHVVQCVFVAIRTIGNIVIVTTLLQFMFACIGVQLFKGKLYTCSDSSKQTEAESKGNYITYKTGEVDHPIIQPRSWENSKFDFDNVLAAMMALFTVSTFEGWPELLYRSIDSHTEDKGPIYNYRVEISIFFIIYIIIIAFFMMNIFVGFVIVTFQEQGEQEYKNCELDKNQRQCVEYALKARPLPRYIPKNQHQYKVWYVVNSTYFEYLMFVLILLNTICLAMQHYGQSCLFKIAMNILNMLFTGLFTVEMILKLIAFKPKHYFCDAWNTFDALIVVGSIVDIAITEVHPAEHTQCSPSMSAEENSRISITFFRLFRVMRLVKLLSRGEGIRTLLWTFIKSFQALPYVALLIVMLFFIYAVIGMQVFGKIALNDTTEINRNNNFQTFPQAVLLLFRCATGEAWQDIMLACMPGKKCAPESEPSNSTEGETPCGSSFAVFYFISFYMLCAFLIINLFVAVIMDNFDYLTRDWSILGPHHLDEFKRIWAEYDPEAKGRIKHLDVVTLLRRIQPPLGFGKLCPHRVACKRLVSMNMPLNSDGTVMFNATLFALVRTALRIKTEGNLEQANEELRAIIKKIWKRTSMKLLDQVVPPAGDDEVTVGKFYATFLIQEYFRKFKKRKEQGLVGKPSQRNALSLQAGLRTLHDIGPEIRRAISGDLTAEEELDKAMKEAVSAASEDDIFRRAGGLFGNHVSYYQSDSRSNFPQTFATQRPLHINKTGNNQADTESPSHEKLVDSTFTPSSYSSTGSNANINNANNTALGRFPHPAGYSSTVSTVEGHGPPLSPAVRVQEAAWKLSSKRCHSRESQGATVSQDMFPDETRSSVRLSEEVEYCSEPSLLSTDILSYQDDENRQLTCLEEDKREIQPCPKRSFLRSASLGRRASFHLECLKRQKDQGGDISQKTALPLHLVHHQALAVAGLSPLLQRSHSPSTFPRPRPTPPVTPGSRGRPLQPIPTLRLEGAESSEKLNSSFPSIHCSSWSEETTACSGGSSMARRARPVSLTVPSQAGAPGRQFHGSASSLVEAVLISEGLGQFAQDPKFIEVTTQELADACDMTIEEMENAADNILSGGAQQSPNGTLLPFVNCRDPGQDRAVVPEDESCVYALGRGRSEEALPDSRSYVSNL
# T3 sequence (P54290 25-944 partner limits assumed, other chains not shown): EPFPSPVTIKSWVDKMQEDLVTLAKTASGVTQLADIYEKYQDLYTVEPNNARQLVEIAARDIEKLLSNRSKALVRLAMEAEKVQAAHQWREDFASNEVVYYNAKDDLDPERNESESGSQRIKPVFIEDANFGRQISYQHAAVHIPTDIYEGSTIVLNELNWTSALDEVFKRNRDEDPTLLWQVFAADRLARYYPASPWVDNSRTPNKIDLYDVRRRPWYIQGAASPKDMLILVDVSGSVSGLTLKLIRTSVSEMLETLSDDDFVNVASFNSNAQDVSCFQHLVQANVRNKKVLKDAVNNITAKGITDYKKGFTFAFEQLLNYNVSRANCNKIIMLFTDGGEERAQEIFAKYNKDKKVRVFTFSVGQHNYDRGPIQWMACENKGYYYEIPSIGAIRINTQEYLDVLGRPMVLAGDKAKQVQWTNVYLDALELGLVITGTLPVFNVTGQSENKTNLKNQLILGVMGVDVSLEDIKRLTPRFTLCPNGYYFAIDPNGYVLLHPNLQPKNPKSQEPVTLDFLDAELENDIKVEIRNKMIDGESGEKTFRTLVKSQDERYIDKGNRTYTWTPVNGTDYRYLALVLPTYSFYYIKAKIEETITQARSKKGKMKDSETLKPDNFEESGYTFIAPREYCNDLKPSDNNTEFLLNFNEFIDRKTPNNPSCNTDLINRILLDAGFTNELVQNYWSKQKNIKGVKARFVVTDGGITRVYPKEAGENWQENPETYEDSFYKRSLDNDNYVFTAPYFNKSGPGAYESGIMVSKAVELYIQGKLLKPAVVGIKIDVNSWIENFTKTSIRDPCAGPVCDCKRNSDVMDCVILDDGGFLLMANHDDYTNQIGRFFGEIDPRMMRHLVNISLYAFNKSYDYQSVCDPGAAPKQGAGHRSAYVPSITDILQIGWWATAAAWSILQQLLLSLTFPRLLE
# T3 sequence (P54290 945-1091 partner limits assumed, other chains not shown): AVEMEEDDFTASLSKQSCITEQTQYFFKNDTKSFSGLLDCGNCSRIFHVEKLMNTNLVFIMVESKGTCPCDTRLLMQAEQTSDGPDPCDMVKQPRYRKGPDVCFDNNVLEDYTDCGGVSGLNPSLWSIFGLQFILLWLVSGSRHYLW
# [2] = cloned human receptor in LM(tk-) cell membranes, SEM and n in lines below, read-out: pKi alpha-1 1c (converted)
# [3] = pKi alpha-1 1c, cloned human receptor in LM(tk-) cell membranes, SEM and n in lines below
# [4] = [3H]rauwolscine, LM(tk-) cell line L-α2C, SEM and n in lines below, read-out: pKi alpha-2 2c (converted)
# [5] = [3H]nitrendipine, rat cardiac muscle membranes, SEM and n in lines below, read-out: pKi Ca (converted)
# [6] = cloned human α1C receptor, LM(tk−) cell membranes, read-out: pKi alpha-1 1c (converted)
# [7] = pKi alpha-1 1c, cloned human α1C receptor, LM(tk−) cell membranes
# [8] = [3H]rauwolscine, human α2C receptor, LM(tk−) cells, read-out: pKi alpha-2 2c (converted)
# [9] = [3H]nitrendipine, rat cardiac muscle membrane fragments, L-type calcium channel, read-out: pKi Ca (converted)
# [10] = pKi alpha-2 2c, [3H]rauwolscine, human α2C receptor, LM(tk−) cells
compound,measurement,setting,value
"COC(=O)C1=C(C)NC(C)=C(C(=O)NCCN2CCC(c3ccccc3)(c3ccccc3)CC2)C1c1ccc([N+](=O)[O-])cc1 (stereo not drawn) [Example 52, 1,4-Dihydro-3-methoxycarbonyl-2,6-dimethyl-4-(4-nitrophenyl)-5-{N-[2-(4,4-diphenylpiperidin-1-yl)ethyl]}carboxamidopyridine hydrochloride hemihydrate]",Ki,[1]; [2],0.00871 µM
same,Ki,α2C receptor; pKi alpha-2 2c,0.263 µM
same,Ki,L-type calcium channel; pKi Ca,5.13 µM
"CC1=C(C(N)=O)C(c2ccc([N+](=O)[O-])cc2)C(C(=O)NCCN2CCC(c3ccccc3)(c3ccccc3)CC2)=C(C)N1 (stereo not drawn) [Example 54, 5-Carboxamide-1,4-dihydro-2,6-dimethyl-4-(4-nitrophenyl)-3-{N-[2-(4,4-diphenylpiperidin-1-yl)ethyl]}carboxamidopyridine hydrochloride hydrate]",Ki,[1]; [3],0.0123 µM
same,Ki,α2C receptor; [4],0.158 µM
same,Ki,L-type calcium channel; [5],58.9 µM
"CC1=C(C(N)=O)C(c2cccc([N+](=O)[O-])c2)C(C(=O)NCCCN2CCC(c3ccccc3)(c3ccccc3)CC2)=C(C)N1 (stereo not drawn) [Example 61, 5-Carboxamido-1,4-dihydro-2,6-dimethyl-4-(3-nitrophenyl)-3-{N-[3-(4,4-diphenylpiperidin-1-yl)propyl]}carboxamidopyridine]",Ki,[1]; [2],0.0038 µM
same,Ki,α2C receptor; [4],0.479 µM
same,Ki,L-type calcium channel; [5],10.2 µM
CC1=C(C(=O)NCCCN2CCC(c3ccccc3)(c3ccccc3)CC2)C(c2ccc([N+](=O)[O-])cc2)c2c([nH]c(=O)[nH]c2=O)N1 (stereo not drawn) [Example 64],Ki,[1]; [3],0.0355 µM
same,Ki,α2C receptor; [4],0.479 µM
same,Ki,L-type calcium channel; [5],97.7 µM
"CCC1=C(C(=O)NCCCN2CCC(c3ccccc3)(c3ccccc3)CC2)C(c2ccc([N+](=O)[O-])cc2)C(C(=O)OC)=C(C)N1 (stereo not drawn) [Example 73, 2-Ethyl-1,4-dihydro-5-methoxycarbonyl-6-methyl-4-(4-nitro) phenyl-3-(N-(3-(4,4-diphenylpiperidin-1-yl)propyl))carboxamidopyridine]",Ki,[1]; [2],0.000661 µM
same,Ki,α2C receptor; pKi alpha-2 2c,0.275 µM
same,Ki,L-type calcium channel; pKi Ca,0.759 µM
"COC(=O)C1=C(C)NC(c2ccccc2)=C(C(=O)NCCCN2CCC(c3ccccc3)(c3ccccc3)CC2)C1c1ccc([N+](=O)[O-])cc1 (stereo not drawn) [Example 78, 1,4-Dihydro-5-methoxycarbonyl-6-methyl-4-(4-nitro)phenyl-2-phenyl-3-(N-(3-(4,4-diphenylpiperidin-1-yl)propyl))carboxamidopyridine hydrochloride hydrate]",Ki,[1]; [2],0.00427 µM
same,Ki,α2C receptor; pKi alpha-2 2c,0.151 µM
same,Ki,L-type calcium channel; pKi Ca,3.16 µM
"CCC1=C(C(=O)NCCCN2CCC(c3ccccc3)(c3ccccc3)CC2)C(c2ccc([N+](=O)[O-])cc2)C(C(N)=O)=C(C)N1 (stereo not drawn) [Example 81, 5-carboxamido-2-ethyl-1,4-dihydro-6-methyl-4-(4-nitro)phenyl-3-(N-(3-(4,4-diphenylpiperidin-1-yl)propyl))carboxamidopyridine hydrochloride]",Ki,[1]; [3],0.00191 µM
same,Ki,α2C receptor; [4],0.123 µM
same,Ki,L-type calcium channel; [5],32.4 µM
"CCOC(=O)C1=C(CC(=O)NCCCN2CCC(c3ccccc3)(c3ccccc3)CC2)NC(C)=C(C(=O)OC)C1c1ccc([N+](=O)[O-])cc1 (stereo not drawn) [Example 89, 3-Ethoxycarbonyl-1,4-dihydro-5-methoxycarbonyl-6-methyl-4-(4-nitro)phenyl-2-(N-(3-(4,4,-diphenylpiperidin-1-yl)propyl)carboxamido)methylpyridine, fumarate salt]",Ki,[1]; [6],0.501 µM
same,Ki,α2C receptor; pKi alpha-2 2c,0.501 µM
same,Ki,L-type calcium channel; pKi Ca,0.813 µM
"COC(=O)C1=C(C)N(C)C(C)=C(C(=O)OCCCN2CCC(c3ccccc3)(c3ccccc3)CC2)C1c1ccc([N+](=O)[O-])cc1 (stereo not drawn) [Example 92, 1,4-Dihydro-5-methoxycarbonyl-1,2,6-trimethyl-4-(4-nitrophenyl)-3-[3-(4,4-diphenylpiperidin-1-yl)propoxy]carbonylpyridine hydrochloride hydrate]",Ki,[1]; [6],0.00309 µM
same,Ki,α2C receptor; pKi alpha-2 2c,0.759 µM
same,Ki,L-type calcium channel; pKi Ca,4.17 µM
"COc1ccc(C2(c3ccccc3)CCN(CCCNC(=O)C3=C(C)NC(C)=C(C(N)=O)C3c3ccc([N+](=O)[O-])cc3)CC2)cc1 (stereo not drawn) [Example 98, 5-Carboxamido-1,4-dihydro-3-{N-[3-(4-(4-methoxyphenyl)-4-phenylpiperidin-1-yl)propyl]}carboxamido-2,6-dimethyl-4-(4-nitrophenyl)pyridine hydrochloride]",Ki,[1]; [7],0.00479 µM
same,Ki,α2C receptor; [8],0.427 µM
same,Ki,L-type calcium channel; [9],1000 µM
"CCC1=C(C(N)=O)C(c2ccc([N+](=O)[O-])cc2)C(C(=O)NCCCN2CCC(O)(c3ccccc3)CC2)=C(CC)N1 (stereo not drawn) [Example 100, 5-Carboxamido-2,6-diethyl-1,4-dihydro-3-{N-(3-(4-hydroxy-4-phenylpiperidin-1-yl)propyl]}carboxamido-4-(4-nitrophenyl)pyridine hydrochloride hydrate]",Ki,[1]; [7],0.00437 µM
same,Ki,α2C receptor; [8],1.78 µM
same,Ki,L-type calcium channel; [9],1000 µM
"CCC1=C(C(N)=O)C(c2ccc([N+](=O)[O-])cc2)C(C(=O)NCCCN2CCC(c3ccc(OC)cc3)(c3ccc(OC)cc3)CC2)=C(CC)N1 (stereo not drawn) [Example 103, 5-Carboxamido-2,6-diethyl-1,4-dihydro-3-{N-[3-(4,4-bis-(4-methoxyphenyl)piperidin-1-yl)propyl]}carboxamido}-4-(4-nitrophenyl)pyridine hydrochloride]",Ki,[1]; [6],0.0107 µM
same,Ki,α2C receptor; pKi alpha-2 2c,0.269 µM
same,Ki,L-type calcium channel; pKi Ca,0.178 µM
"CCC1=C(C(N)=O)C(c2ccc([N+](=O)[O-])cc2)C(C(=O)NCCCN2CCC3(CC2)C(=O)NCN3c2ccccc2)=C(CC)N1 (stereo not drawn) [Example 105, 5-Carboxamido-2,6-diethyl-1,4-dihydro-4-(4-nitrophenyl)-3-{N-[3-(1-phenyl-4-oxo-1,3,8-triazaspiro[4.3]decan-8-yl)propyl]}carboxamidopyridine hydrochloride hydrate]",Ki,[1]; [6],0.692 µM
same,Ki,α2C receptor; pKi alpha-2 2c,1.38 µM
same,Ki,L-type calcium channel; pKi Ca,6.61 µM
"CCC1=C(C(N)=O)C(c2ccc([N+](=O)[O-])cc2)C(C(=O)NCCCN2CCC(C)(c3ccccc3)CC2)=C(CC)N1 (stereo not drawn) [Example 106, 5-Carboxamido-2,6-diethyl-1,4-dihydro-3-{N-[3-(4-Methyl-4-phenylpiperidin-1-yl)propyl]}carboxamido-4-(4-nitrophenyl)pyridine hydrochloride hydrate]",Ki,[1]; [7],0.0151 µM
same,Ki,α2C receptor; [8],0.295 µM
same,Ki,L-type calcium channel; [9],1000 µM
"CCC1=C(C(=O)NCCCN2CCC(c3ccccc3)(c3ccccc3)CC2)C(c2cccc(OC)c2)C(C(=O)NCCCN2CCC(c3ccccc3)(c3ccccc3)CC2)=C(CC)N1 [Example 112, 2,6-Diethyl-1,4-dihydro-4-(3-methoxyphenyl)-3,5-bis(N-(3-(4,4-diphenylpiperidin-1-yl)propyl)carboxamido)-pyridine]",Ki,[1]; [7],0.0245 µM
same,Ki,α2C receptor; [10],0.269 µM
same,Ki,L-type calcium channel; [9],0.0575 µM
"CCC1=C(C(=O)NCCCN2CCC(c3ccccc3)(c3ccccc3)CC2)C(c2cccc(OC)c2)C(C(N)=O)=C(C)N1 (stereo not drawn) [Example 113, 5-Carboxamide-2-ethyl-1,4-dihydro-4-(3-methoxyphenyl)-6-methyl-3-(N-(3-(4,4-diphenylpiperidin-1-yl)propyl)carboxamido)-pyridine]",Ki,[1]; [7],0.0178 µM
same,Ki,α2C receptor; [10],0.316 µM
same,Ki,L-type calcium channel; [9],1000 µM
"CCC1=C(C(=O)NCCCN2CCC(c3ccccc3)(c3ccccc3)CC2)C(c2ccc(N)cc2)C(C(=O)OC)=C(C)N1 (stereo not drawn) [Example 114, 4-(4-Aminophenyl)-2-ethyl-1,4-dihydro-5-methoxycarbonyl-6-methyl-3-(N-(3-(4,4-diphenylpiperidin-1-yl)propyl)carboxamido)-pyridine]",Ki,[1]; [6],0.0102 µM
same,Ki,α2C receptor; pKi alpha-2 2c,0.724 µM
same,Ki,L-type calcium channel; pKi Ca,2.88 µM
